Measured values published in US20250270227A1, “CAMPTOTHECIN DERIVATIVE, AND PHARMACEUTICAL COMPOSITION AND USE THEREOF” (SIMCERE ZAIMING PHARMACEUTICAL CO., LTD., priority 2021, published 2025).

Tests used:
[1] = system: Human colorectal cancer cell line HCT116; test: Test 1 of anti-proliferative activity against tumor cells (Cell-Titer Glo); assay type: cell-based; conditions: Homo sapiens, HCT-116, 72 h, read-out: HCT116 Anti-proliferative activity IC50 (nM), HCT116 cells, cultured 3 days with compound, Cell-Titer Glo
Description: (§1) Cell culture: HCT116 cells and SKBR3 cells were cultured in McCoy's 5a medium containing 10% fetal bovine serum+1% penicillin-streptomycin at 37° C. and 5% CO2, and OVCAR3 cells were cultured in 1640 medium containing 20% fetal bovine serum+2 μg/mL bovine insulin+1% penicillin-streptomycin at 37° C. and 5% CO2. Cells in logarithmic growth phase were suitable for the experiment.
(§2) Detection of cell proliferation activity: The inhibitory activity of the compounds on the proliferation of the three cell lines HCT116, SKBR3 and OVCAR3 was detected using Cell-Titer Glo reagent. HCT116 cells (1500 cells per well), SKBR3 cells (3000 cells per well) and OVCAR3 cells (5000 cells per well) were seeded in 96-well plates and cultured at 37° C. and 5% CO2 for 24 h. The solution of the compound to be tested (the compound was dissolved in DMSO with the concentration of the compound being 1 mM, then the compound was diluted to 3 μM with DMSO, with 3-fold dilution and a total of 9 concentrations, and 10 μL of the prepared compound solution was transferred to a 96-well plate with the final concentration of 0-300 nM) was added. The cells were placed at 37° C. and 5% CO2 for further culture. HCT116 cells were cultured for 3 days, and SKBR3 cells and OVCAR3 cells were cultured for 5 days. The cell viability was detected by adding Cell-Titer Glo reagent.
(§3) Additionally, a negative control group and a positive control group were provided as Bottom and Top, respectively. In the negative control group, the cells were not added, only the same volume of medium was added, and other operations were consistent with those in the experimental group; in the positive control group, the test compound was not added, only the same volume of DMSO was added, and other operations were consistent with those in the experimental group.
(§4) Data analysis: The % compound inhibition was calculated, and fitting was performed to obtain IC50 of the compound.
(§5) % Compound inhibition=1−100%*(Signal−Bottom)/(Top−Bottom).
(§6) Signal represents the signal value of the experimental group, Bottom represents the average signal value of the negative control group, and Top represents the average signal value of the positive control group.

[2] = system: human breast cancer cell line SKBR3; test: as above; assay type: cell-based; conditions: Homo sapiens, SK-BR-3, 120 h, read-out: SKBR3 Anti-proliferative activity IC50 (nM), SKBR3 cells, cultured 5 days with compound, Cell-Titer Glo
Description: as §1, §2, §3, §4, §5, §6

SMILES	IC50 [1]	IC50 [2]
CC[C@@]1(O)C(=O)OCc2c1cc1n(c2=O)Cc2c-1nc1ccc3occc3c1c2CNC(=O)CO [Compound 20, (S)-N-((8-ethyl-8-hydroxy-9,12-dioxo-8,9,12,14-tetrahydro-11H-furo[3,2-f]pyrano[3′,4′:6,7]indolizino[1,2-b]quinolin-15-yl)methyl)-2-hydroxyacetamide]	20.7 nM	10.5 nM
CC[C@@]1(O)C(=O)OCc2c1cc1n(c2=O)Cc2c-1nc1cc(F)c(Cl)c(F)c1c2CN [Compound 12, (S)-11-(aminomethyl)-9-chloro-4-ethyl-8,10-difluoro-4-hydroxy-1,12-dihydro-14H-pyrano[3′,4′:6,7]indolizino[1,2-b]quinoline-3,14(4H)-dione]	13.7 nM	4.8 nM
CC[C@@]1(O)C(=O)OCc2c1cc1n(c2=O)Cc2c-1nc1cc(Cl)c(C)cc1c2CNC(=O)C(C)(C)O [Compound 17, (S)-N-((8-chloro-4-ethyl-4-hydroxy-9-methyl-3,14-dioxo-3,4, 12,14-tetrahydro-1H-pyrano[3′,4′:6,7]indolizino[1,2-b]quinolin-11-yl)methyl)-2-hydroxy-2-methylpropanamide]	6 nM	2.7 nM
CC[C@@]1(O)C(=O)OCc2c1cc1n(c2=O)Cc2c-1nc1cc3c(c([N+](=O)[O-])c1c2CNC(=O)C(O)C1CC1)OCO3 (stereo partly drawn) [Compound 29, 2-cyclopropyl-N-(((S)-7-ethyl-7-hydroxy-15-nitro-8,11-dioxo-7,8,11,13-tetrahydro-10H-[1,3]dioxolo[4,5-g]pyrano[3′,4′:6,7]indolizino[1,2-b]quinolin-14-yl)methyl)-2-hydroxyacetamide]	55.1 nM	–
CC[C@@]1(O)C(=O)OCc2c1cc1n(c2=O)Cc2c-1nc1cc(F)c(Cl)c(F)c1c2CNC(=O)C1(O)CC1 [Compound 16, (S)-N-((9-chloro-4-ethyl-8,10-difluoro-4-hydroxy-3,14-dioxo-3,4,12,14-tetrahydro-1H-pyrano[3′,4′:6,7]indolizino[1,2-b]quinolin-11-yl)methyl)-1-hydroxycyclopropane-1-carboxamide]	3 nM	2.3 nM
CC[C@@]1(O)C(=O)OCc2c1cc1n(c2=O)Cc2c-1nc1cc(F)c(C)cc1c2CNC(=O)C1(O)CC1 [Compound 9, (S)-N-((4-ethyl-8-fluoro-4-hydroxy-9-methyl-3,14-dioxo-3,4,12, 14-tetrahydro-1H-pyrano[3′,4′:6,7]indolizino[1,2-b]quinolin-11-yl)methyl)-1-hydroxycyclopropane-1-carboxamide]	4.6 nM	2.1 nM
CC[C@@]1(O)C(=O)OCc2c1cc1n(c2=O)Cc2c-1nc1cc(Cl)c3occc3c1c2CNC(=O)C(O)C1CC1 (stereo partly drawn) [Compound 28, N-(((S)-4-chloro-8-ethyl-8-hydroxy-9,12-dioxo-8,9,12,14-tetrahydro-11H-furo[3,2-f]pyrano[3′,4′:6,7]indolizino[1,2-b]quinolin-15-yl)methyl)-2-cyclopropyl-2-hydroxyacetamide]	8.8 nM	–
CC[C@@]1(O)C(=O)OCc2c1cc1n(c2=O)Cc2c-1nc1cc(F)c(Cl)cc1c2CN [Compound 2, (S)-11-(aminomethyl)-9-chloro-4-ethyl-8-fluoro-4-hydroxy-1,12-dihydro-14H-pyrano[3′,4′:6,7]indolizino[1,2-b]quinoline-3,14(4H)-dione]	3.6 nM	2.5 nM
CC[C@@]1(O)C(=O)OCc2c1cc1n(c2=O)Cc2c-1nc1ccc3c(c1c2CNC(=O)CO)CCC3 [Compound 7, (S)-N-((8-ethyl-8-hydroxy-9,12-dioxo-2,3,8,9,12,14-hexahydro-1H,11H-cyclopentadieno[f]pyrano[3′,4′:6,7]indolizino[1,2-b]quinolin-15-yl)methyl)-2-hydroxyacetamide]	22.8 nM	–
CC[C@@]1(O)C(=O)OCc2c1cc1n(c2=O)Cc2c-1nc1cc(F)c(C)cc1c2CNC1(CO)CC1 [Compound 19, (S)-4-ethyl-8-fluoro-4-hydroxy-11-(((1-(hydroxymethyl)cyclopropyl)amino)methyl)-9-methyl-1,12-dihydro-14H-pyrano[3′,4′:6,7]indolizino[1,2-b]quinoline-3,14(4H)-dione]	5 nM	4 nM
CC[C@@]1(O)C(=O)OCc2c1cc1n(c2=O)Cc2c-1nc1cc(Cl)c3occc3c1c2CNC(=O)CO [Compound 27, (S)-N-((4-chloro-8-ethyl-8-hydroxy-9,12-dioxo-8,9,12,14-tetrahydro-11H-furo[3,2-f]pyrano[3′,4′:6,7]indolizino[1,2-b]quinolin-15-yl)methyl)-2-hydroxyacetamide]	24.3 nM	–
CC[C@@]1(O)C(=O)OCc2c1cc1n(c2=O)Cc2c-1nc1cc(F)c(Br)cc1c2CNC(=O)CO [Compound 5, (S)-N-((9-bromo-4-ethyl-8-fluoro-4-hydroxy-3,14-dioxo-3,4, 12,14-tetrahydro-1H-pyrano[3′,4′:6,7]indolizino[1,2-b]quinolin-11-yl)methyl)-2-hydroxyacetamide]	16.9 nM	3.3 nM
CC[C@@]1(O)C(=O)OCc2c1cc1n(c2=O)Cc2c-1nc1cc(Cl)c(C)cc1c2CNC(=O)C1(O)CC1 [Compound 10, (S)-N-((8-chloro-4-ethyl-4-hydroxy-9-methyl-3,14-dioxo-3,4, 12,14-tetrahydro-1H-pyrano[3′,4′:6,7]indolizino[1,2-b]quinolin-11-yl)methyl)-1-hydroxycyclopropan-1-carboxamide]	5.6 nM	2.3 nM
CC[C@@]1(O)C(=O)OCc2c1cc1n(c2=O)Cc2cc3c(CNC(=O)CO)c(O)ccc3nc2-1 [Compound 8, (S)-N-((4-ethyl-4,9-dihydroxy-3,14-dioxo-3,4,12,14-tetrahydro-1H-pyrano[3′,4′:6,7]indolizino[1,2-b]quinolin-10-yl)methyl)-2-hydroxyacetamide]	289 nM	55.1 nM
CC[C@@]1(O)C(=O)OCc2c1cc1n(c2=O)Cc2c-1nc1cc(F)c(Br)cc1c2CN [Compound 4, (S)-11-(aminomethyl)-9-bromo-4-ethyl-8-fluoro-4-hydroxy-1,12-dihydro-14H-pyrano[3′,4′:6,7]indolizino[1,2-b]quinoline-3,14(4H)-dione]	3.6 nM	2.7 nM
CC[C@@]1(O)C(=O)OCc2c1cc1n(c2=O)Cc2c-1nc1cc3c(cc1c2CNC(=O)CO)OCCO3 [Compound 1, (S)-N-((8-ethyl-8-hydroxy-9,12-dioxo-2,3,8,9,12,14-hexahydro-11H-[1,4]dioxino[2,3-g]pyrano[3′,4′:6,7]indolizino[1,2-b]quinolin-15-yl)methyl)-2-hydroxyacetamide]	36.8 nM	8.5 nM
CC[C@@]1(O)C(=O)OCc2c1cc1n(c2=O)Cc2c-1nc1cc(Cl)c(C)cc1c2CNC(=O)C(O)C(C)C (stereo partly drawn) [Compound 18, N-(((S)-8-chloro-4-ethyl-4-hydroxy-9-methyl-3,14-dioxo-3,4, 12,14-tetrahydro-1H-pyrano[3′,4′:6,7]indolizino[1,2-b]quinolin-11-yl)methyl)-2-hydroxy-3-methylbutanamide]	10.5 nM	5.1 nM
CC[C@@]1(O)C(=O)OCc2c1cc1n(c2=O)Cc2c-1nc1cnc(Br)cc1c2CNC(=O)CO [Compound 15, (S)-N-((9-bromo-4-ethyl-4-hydroxy-3,14-dioxo-3,4,12,14-tetrahydro-1H-pyrano[3′,4′:6,7]indolizino[1,2-b][1,7]naphthyridin-11-yl)methyl)-2-hydroxyacetamide]	81.3 nM	–
CC[C@@]1(O)C(=O)OCc2c1cc1n(c2=O)Cc2c-1nc1cc(Cl)c(C)cc1c2CNC(=O)C(O)C1CC1 (stereo partly drawn) [Compound 11, N-(((S)-8-chloro-4-ethyl-4-hydroxy-9-methyl-3,14-dioxo-3,4, 12,14-tetrahydro-1H-pyrano[3′,4′:6,7]indolizino[1,2-b]quinolin-11-yl)methyl)-2-cyclopropyl-2-hydroxyacetamide]	10.4 nM	3.2 nM
CC[C@@]1(O)C(=O)OCc2c1cc1n(c2=O)Cc2c-1nc1cc(F)c(Cl)cc1c2CNC(=O)CO [Compound 3, (S)-N-((9-chloro-4-ethyl-8-fluoro-4-hydroxy-3,14-dioxo-3,4,12, 14-tetrahydro-1H-pyrano[3′,4′:6,7]indolizino[1,2-b]quinolin-11-yl)methyl)-2-hydroxyacetamid]	18.2 nM	3.6 nM
